In patent US10828368B2, “Therapeutic treatments using centhaquin” (MIDWESTERN UNIVERSITY, priority 2009, dated 2020):
Entries after “also recorded” stand apart in the source; their conditions may differ. Read-outs that look alike come from different tables or passages of the source.

Assays:
[1] = system: urethane anaesthetized rats; assay: Cardiovascular response (MAP, PP, HR) of drugs in urethane anaesthetized rats; format: in vivo, rat; settings: for fall in MAP / decrease in PP / decrease in MAP / reduction in HR: compared to baseline; for dose-response effect on MAP, PP and HR: clonidine 10, 30, 90 μg/kg i.v., centhaquin 0.05, 0.15, 0.45 mg/kg i.v.
Text: Rats were anaesthetized with urethane (1.5 g/kg i.p.) and prepared for the determination of hemodynamic parameters (Gulati and Srimal, 1993; Gulati et al., 1997b). The anesthetized rats were shaved and immobilized to prepare for cannulation. A 2-3 cm incision was made above the femoral vein and artery, and the vessels were dissected and cleaned. The left femoral vein was cannulated (PE-50 tubing, Clay Adams, Parsipanny, N.J.) and secured for drug administration. An ultra-miniature Pressure transducer SPR-320 (2F Polyurethane), with a single pressure sensor side mounted at the tip (Millar Instruments, Houston, Tex.), was inserted in the left femoral artery to acquire the hemodynamic signals. Pressure transducer was connected to bridge amplifier (ML221 Bridge Amp; AD Instruments, Mountain View, Calif., USA) with Viking connector (AEC-10C) and the signals were continuously acquired at a sampling rate of 1000 S^−1 using Millar PowerLab 16/30 data acquisition system (AD Instruments, Mountain View, Calif., USA). MAP, HR, and PP were determined and analyzed with LabChart-5.00 software program (Millar Instruments). After the experiment was completed, the animals were euthanized with higher dose of urethane (3 gm/kg).
The animals were allowed to stabilize for at least 20 min following surgical procedures.
In the above studies, all drugs were injected through the left femoral vein and changes in MAP, HR, and PP after clonidine and centhaquin injection were recorded for 1 hour using Millar PowerLab 16/30 data acquisition system.

[2] = Arterial blood gas analysis before and one hour after drug; format: in vivo, rat; settings: for changes in arterial blood pH, pO2, pCO2, Na^+, K^+, lactate and hematocrit: before versus one hour after clonidine 90 μg/kg or centhaquin 0.45 mg/kg; for Hct / K^+ / Na^+ / arterial blood pH / pCO2 / pO2: one hour after clonidine 90 μg/kg or centhaquin 0.45 mg/kg
Text: Arterial blood pH, pO2, pCO2, Na^+, K^+, and lactate were monitored prior to and after drug administration. Blood samples were drawn from the arterial cannula using blood gas sampling syringes (Innovative Medical Technologies, Inc. Leawood, Kans.) and analyzed using a GEM Premier 3000 unit (Instrument Laboratory, Lexington, Mass.).
Blood samples were drawn from the arterial cannula using blood gas sampling syringes (Innovative Medical Technologies, Inc. Leawood, Kans.) and analyzed using a GEM Premier 3000 unit (Instrument Laboratory, Lexington, Mass.).

[3] = system: rat abdominal aortic ring; assay: Clonidine response on the abdominal aortic ring; settings: for EC50: Rattus norvegicus, read-out: ED50 value, aortic ring contraction
Method: The abdominal aorta was isolated and dissected out from urethane (1.5 g·kg^−1 i.p.) anesthetized rats and was transferred to Krebs bicarbonate buffer pH 7.4 (composition in mM, NaCl, 112.0; KCl, 4.7; KH2PO4, 1.2; MgSO4, 1.2; CaCl2, 2.5; NaHCO3, 25.0; glucose, 11.0) with continuous supply of 95% O2 and 5% CO2 at 37±1° C. The tissue was cut into ring segments (3 mm in length) and mounted in organ baths using 10 mm Radnoti glass ring supports. Extra care was taken while cutting and mounting the ring segment to prevent loss of endothelial layer. Tissue was equilibrated for 45 min by applying 2 g of tension with regular buffer change after every 15 min. Vessels were pre-contracted with 100 mM KCl to determine the viability. Clonidine-induced contractions of aortic ring were measured using Radnoti 8 unit tissue bath (Radnoti Glass Technology, Monrovia, Calif.) and the force transducer coupled with a Grass P7D polygraph. The dose response was recorded for 0.25, 0.5, 1, 2, 4, 6, 8, and 10 μM of clonidine with or without ET-1 (4 nM) treatment and ED50 value was calculated. Experiments were performed in Group 1: Vehicle+Clonidine (0.25 to 10 μM); and Group 2: ET-1 (4 nM)+Clonidine (0.25 to 10 μM) using (n=6) rats in each group.

rats [4] = settings: cited from earlier work
[5] = system: α-adrenergic receptors in the hypothalamus and medulla; settings: chronic administration in rats; with hypotension and bradycardia; cited from earlier work
[6] = system: 5-HT1 receptors in the medulla; settings: cited from earlier work
α2-adrenergic receptors = settings: higher for α2; cited from earlier work
rats [7] = assay: Tail-flick latency analgesia (FIGS. 9-13); format: in vivo, rat; settings: iv
[8] = system: rats in the hemorrhagic shock model; assay: Hemorrhagic shock model, resuscitation with Ringer's lactate and centhaquin; format: in vivo, rat
mice = settings: intraperitoneal; cited from earlier work
[9] = once a day for 15 days; cited from earlier work
norepinephrine release = settings: centhaquin 0.1, 1.0 and 10.0 μg/ml; cited from earlier work

Clc1cccc(Cl)c1NC1=NCCN1 [Clonidine, N-(2,6-dichlorophenyl)-4,5-dihydro-1H-imidazol-2-amine]
decrease in HR ([1]; clonidine 10 μg/kg): 20.84% | fall in MAP ([1]; clonidine 10 μg/kg i.v.): 24.02% | decrease in PP ([1]; clonidine 10 μg/kg): 33.81% | decrease in HR ([1]; clonidine 30 μg/kg): 23.18% | fall in MAP ([1]; clonidine 30 μg/kg i.v.): 26.15% | decrease in PP ([1]; clonidine 30 μg/kg): 36.39% | decrease in HR ([1]; clonidine 90 μg/kg): 23.19% | fall in MAP ([1]; clonidine 90 μg/kg i.v.): 19.48% | decrease in PP ([1]; clonidine 90 μg/kg): 34.27% | dose-response effect on MAP, PP and HR [1]: dose-dependent hypotension and bradycardia; also recorded: dose-dependent fall in mean arterial pressure (MAP), pulse pressure (PP), and a decrease in heart rate (HR) | changes in arterial blood pH, pO2, pCO2, Na^+, K^+, lactate and hematocrit [2]: no significant changes | Hct [2]: 50 ± 4% | K^+ [2]: 4.3 ± 0.6 mmol/L | Na^+ [2]: 139 ± 2 mmol/L | arterial blood pH [2]: 7.28 ± 0.03 | pCO2 [2]: 46 ± 4 mmHg | pO2 [2]: 100 ± 14 mmHg | EC50 ([3]; ET-1 (4 nM) treated aorta): 1810 ± 40 nM | EC50 ([3]; vehicle treated aorta): 2640 ± 20 nM | percent contraction of aorta ([3]; clonidine 2 μM, ET-1 (4 nM) treated aorta): 75.95±1.36% | percent contraction of aorta ([3]; clonidine 2 μM, vehicle treated aorta): 51.017±1.70% | percent contraction of aorta ([3]; clonidine 4 μM, ET-1 treated aorta): 96.83±0.54% | percent contraction of aorta ([3]; clonidine 4 μM, vehicle treated aorta): 80.27±2.48% | contraction in rat abdominal aortic ring ([3]; clonidine 0.25-10 μM): dose-dependent (0.25-10 μM) contraction | effect on blood pressure and heart rate (rats [4]; clonidine given intravenously in cervical sectioned rats): did not produce any effect | effect of chronic administration on α-adrenergic receptors in the hypothalamus and medulla [5]: up-regulation | effect of repeated administration on 5-HT1 receptors in the medulla [6]: up-regulation | binding affinity for α2-adrenergic receptors relative to α1-adrenoreceptors (α2-adrenergic receptors): approximately 10 fold

Cc1cccc(N2CCN(CCc3ccc4ccccc4n3)CC2)c1 [Centhaquin]
decrease in MAP ([1]; centhaquin 0.05 mg/kg i.v.): 15.64% | reduction in HR ([1]; centhaquin 0.05 mg/kg i.v.): 10.49% | decrease in MAP ([1]; centhaquin 0.15 mg/kg i.v.): 25.15% | reduction in HR ([1]; centhaquin 0.15 mg/kg i.v.): 12.57% | decrease in MAP ([1]; centhaquin 0.45 mg/kg i.v.): 28.08% | reduction in HR ([1]; centhaquin 0.45 mg/kg i.v.): 13.34% | dose-response effect on MAP, PP and HR [1]: dose-dependent fall in MAP, and a decrease in HR | dose-response effect on MAP, PP and HR ([1]; listed as centhaquin): dose-dependent hypotension and bradycardia | changes in arterial blood pH, pO2, pCO2, Na^+, K^+, lactate and hematocrit [2]: did not affect arterial blood pH, pO2, and pCO2 | changes in arterial blood pH, pO2, pCO2, Na^+, K^+, lactate and hematocrit ([2]; listed as centhaquin): no significant changes | Hct [2]: 52 ± 1% | K^+ [2]: 4.0 ± 0.2 mmol/L | Na^+ [2]: 140 ± 1 mmol/L | arterial blood pH [2]: 7.27 ± 0.02 | pCO2 [2]: 53 ± 2 mmHg | pO2 [2]: 96 ± 9 mmHg | analgesic effect relative to 4 mg/kg dose of morphine (rats [7]; centhaquin 0.3 mg/kg): comparable | analgesic effect relative to 4 mg/kg dose of morphine (rats [7]; centhaquin 0.9 mg/kg): significantly greater | analgesia (tail-flick latency) (rats [7]; centhaquin 0.1, 0.3 and 0.9 mg/kg): dose-dependent analgesia | effect on morphine analgesia (rats [7]; centhaquin 0.3 and 0.9 mg/kg): potentiated | pressure-volume loops ([8]; LR-100 and centhaquin 0.05 mg/kg compared with LR-100): improvement | blood lactate, comparison of centhaquin doses ([8]; centhaquin 0.05-0.45 mg/kg): lower doses of centhaquin were more effective than the higher doses | blood lactate ([8]; centhaquin 0.05-0.45 mg/kg with Ringer's lactate): drop in lactate | survival time ([8]; centhaquin administered with LR-100): increase in survival time | LD50 (mice): 600 mg/kg | effect on MAP and HR (rats [4]; centhaquin 0.05 to 0.2 mg/kg, iv, urethane anesthetized rats): dose-dependent decrease | effect on MAP or HR (rats [4]; cervical sectioned rats, intravenously administered): did not produce any effect | effect on MAP or HR (rats [4]; intrathecal administration): did not produce any effect | potentiation or tolerance on repeated administration [9]: did not produce any potentiation or tolerance | norepinephrine release evoked by potassium chloride and dimethyl phenyl piperazinium chloride (norepinephrine release): inhibited | spontaneous release of norepinephrine (norepinephrine release): initial increase followed by decrease | effect of chronic administration on α-adrenergic receptors in the hypothalamus and medulla [5]: up-regulation | effect of repeated administration on 5-HT1 receptors in the medulla [6]: up-regulation
